Measured values reported in publication PMC9508196 (Scientific Reports, 2022).
Non-standard residues stand in square brackets, D forms with d. Residues, ends and D or L forms follow the SMILES beside them. No end group written: not given here.

Experiments:
[1] = system: A. baumannii A-8.2–1 (XDR); test: microbe, parasite or virus in culture; format: cell-based, Acinetobacter baumannii; settings: clinical isolate A-8.2–1 (XDR), blood
Text: (§1) Ten strains of both Gram-positive and -negative bacteria, including Staphylococcus aureus ATCC 25,923, S. epidermidis ATCC 12,228, Bacillus cereus ATCC 11,778, Listeria monocytogenes 10403S, Salmonella typhimurium ATCC 13,311, Pseudomonas aeruginosa ATCC 27,853, Shigella sonnei ATCC 11,060, A. baumannii ATCC 19,606, Escherichia coli ATCC 25,922 and E. coli O157:H7, were used in this study. Eight clinical isolates of multidrug-resistant (MDR) and extensively drug-resistant (XDR) A. baumannii, isolated from human (blood, sputum, respiratory sample, sterile site sample and urine), were kindly provided by Asst. Prof. Dr. Sakawrat Kanthawong (Faculty of Medicine, Khon Kaen University, Thailand) (Table S1). All bacterial strains, excluding L. monocytogenes 10403S and E. coli, were cultured in tryptic soy broth (TSB). L. monocytogenes was grown in TSB supplemented with 0.6% yeast extract (TSB-YE), and E. coli was cultured in Luria broth (LB). All of bacteria were cultured at 37 °C with continuous shaking at 220 rpm.
(§2) Minimum inhibitory concentration (MIC) of peptides and antibiotics was assessed by a modified version of the broth microdilution method from the Clinical and Laboratory Standards Institute (CLSI) as previously described. In brief, mid-log phase growths of microbial strains were cultured in Müeller-Hinton broth (MHB) with an initial inoculum of 2–8 × 10^5 CFU/mL. Bacteria suspensions were incubated in sterile 96-well plates with test agents at desired concentrations. […] Minimum bactericidal concentration (MBC) determination was performed using a modified version of the colony count assay. In brief, fifty µl of all non-turbid wells from MIC experiments were spread on agar plates. The MBC value was defined as the lowest concentration of peptides with no colony growth on the plate. All assays were performed in triplicate.

A. baumannii ATCC 19,606 [2] = test: microbe, parasite or virus in culture; format: cell-based, Acinetobacter baumannii; settings: A. baumannii ATCC 19,606, triplicate; for MIC: broth microdilution (modified CLSI), MHB, 2–8 × 10^5 CFU/mL, 24 h, 37 °C; for MBC: colony count from non-turbid MIC wells
Text: as §1, §2

[3] = system: A. baumannii B-8.1–1 (MDR); test: microbe, parasite or virus in culture; format: cell-based, Acinetobacter baumannii; settings: clinical isolate B-8.1–1 (MDR), respiratory tract
Text: as §1, §2

[4] = system: A. baumannii B-8.1–2 (MDR); test: microbe, parasite or virus in culture; format: cell-based, Acinetobacter baumannii; settings: clinical isolate B-8.1–2 (MDR), respiratory tract
Text: as §1, §2

[5] = system: A. baumannii B-8.2–2 (XDR); test: microbe, parasite or virus in culture; format: cell-based, Acinetobacter baumannii; settings: clinical isolate B-8.2–2 (XDR), respiratory tract
Text: as §1, §2

[6] = system: A. baumannii C-8.1–2 (MDR); test: microbe, parasite or virus in culture; format: cell-based, Acinetobacter baumannii; settings: clinical isolate C-8.1–2 (MDR), sterile site
Text: as §1, §2

[7] = system: A. baumannii C-8.2–1 (XDR); test: microbe, parasite or virus in culture; format: cell-based, Acinetobacter baumannii; settings: clinical isolate C-8.2–1 (XDR), sterile site
Text: as §1, §2

[8] = system: A. baumannii D-10.1–1 (MDR); format: cell-based, Acinetobacter baumannii; settings: clinical isolate D-10.1–1 (MDR), urine
Text: as §1, §2

[9] = system: A. baumannii D-10.1–2 (MDR); format: cell-based, Acinetobacter baumannii; settings: clinical isolate D-10.1–2 (MDR), urine
Text: as §1, §2

A. baumannii ATCC 19,606 [10] = test: Peptide sensitivity to physiological salts (MIC/MBC); format: cell-based, Acinetobacter baumannii; settings: for MBC in the presence of FeCl3 / MIC in the presence of FeCl3: MHB with 4 µM FeCl3; for MBC in the presence of NH4Cl / MIC in the presence of NH4Cl: MHB with 6 µM NH4Cl; for MBC in the presence of ZnCl2 / MIC in the presence of ZnCl2: MHB with 8 µM ZnCl2; for MBC in the presence of MgCl2 / MIC in the presence of MgCl2: MHB with 1 mM MgCl2; for MBC in the presence of KCl / MIC in the presence of KCl: MHB with 4.5 mM KCl; for MBC in the presence of NaCl / MIC in the presence of NaCl: MHB with 150 mM NaCl; for MBC in the presence of CaCl2 / MIC in the presence of CaCl2: MHB with […] CaCl2; for MBC, control / MIC, control: control: absence of serum salts, MHB
Procedure: as §2
The MIC and MBC assays were performed after peptide was exposed to various conditions, including proteolytic enzymes, serum salts and human plasma. […] To determine peptide sensitivity to physiological salts, approximately 5 × 10^5 CFU/ml of A. baumannii ATCC 19,606 was mixed with the MHB containing different physiological salts at final concentration as follows: 150 mM NaCl, 4.5 mM KCl, 1 mM MgCl2, 6 µM NH4Cl, 8 µM ZnCl2, 4 µM FeCl3 and […]. After treatment, the MIC was evaluated as described in 2.4. To test the stability of peptides in human plasma, peptide was mixed with pure human plasma, and the mixture was incubated for 1 h at 37 °C. Then, the mixture was two-fold serially diluted with sterile MHB. The peptides at final concentrations of 0.98 to 250 µg/ml were incubated with an equal volume of bacterial suspension at 37 °C for 24 h. MIC values were determined as described in 2.4.

[11] = system: mouse fibroblast (L929) cells; test: In vitro cytotoxicity assay (MTT); format: cell-based; settings: 24 h
Procedure: The colorimetric 3-(4,5 dimethylthiazol-2-yl)-2,5-diphenyltetrazolium bromide (MTT; Invitrogen) dye reduction assay was used to determine the cytotoxicity of peptides on mouse fibroblast (L929) cells (NCTC clone 929) according to a modified MTT assay. L929 cells were cultured in Dulbecco’s Modified Eagle Medium (DMEM; Gibco) containing 10% fetal bovine serum (FBS; Gibco) and 100 U/ml penicillin–streptomycin in a fully humidified atmosphere of 95% air and 5% CO2 at 37 °C. The cells (10^5 cells/well) were seeded on 96-well plates and incubated with serially diluted peptide (0.98 to 250 μg/ml) for 24 h. At the end of incubation period, MTT solution (100 µl, 0.4 mg/ml) was added to each well and incubated for 4 h. The supernatants were removed and replaced by 100 µl of DMSO to dissolve the purple formazan crystals. Absorbance was measured using a MultiskanTM FC microplate reader at a wavelength of 570 nm. Cells without peptides served as negative controls. Cell viability (percentage) was calculated using the following equation: %Cell viability=OD570of treated sample-ODBlank/OD570of control-ODBlank×100%

Compound | MBC [1] | MIC [1] | MIC (A. baumannii ATCC 19,606 [2]) | MBC (A. baumannii ATCC 19,606 [2]) | MBC [3] | MIC [3] | MBC [4] | MIC [4] | MBC [5] | MIC [5] | MBC [6] | MIC [6] | MBC [7] | MIC [7] | MBC [8] | MIC [8] | MBC [9] | MIC [9] | MBC in the presence of FeCl3 (A. baumannii ATCC 19,606 [10]) | MIC in the presence of FeCl3 (A. baumannii ATCC 19,606 [10]) | further results
CC[C@@H](C)[C@@H](NC(=O)[C@@H](CCCCN)NC(=O)CNC(=O)[C@@H](C)NC(=O)[C@H](NC(=O)[C@@H](CCCCN)NC(=O)[C@@H](CCCCN)NC(=O)[C@H](NC(=O)[C@@H](CCCNC(=N)N)NC(=O)[C@@H](CCCNC(=N)N)NC(=O)[C@@H](Cc1ccccc1)NC(=O)[C@@H](CC(C)C)NC(=O)[C@H](N)CCCNC(=N)N)C(C)C)C(C)C)C(=O)N[C@H](C)C(=O)N[C@H](CCCCN)C(=O)N[C@H](CCCNC(=N)N)C(=O)N[C@@H](C(=O)N[C@H](Cc1c[nH]c2ccccc12)C(=O)N[C@H](CCCCN)C(N)=O)[C@H](C)CC [D-AP19] (H-[dR][dL][dF][dR][dR][dV][dK][dK][dV][dA]G[dK][dI][dA][dK][dR][dI][dW][dK]-NH2) | 7.81(7.81) µg/ml | 7.81(7.81) µg/ml | 7.81 (7.81) µg/ml | 7.81 (7.81) µg/ml | 7.81(7.81) µg/ml | 7.81(7.81) µg/ml | 15.63(15.63) µg/ml | 15.63(15.63) µg/ml | 7.81(7.81) µg/ml | 7.81(7.81) µg/ml | 3.91(3.91) µg/ml | 3.91(3.91) µg/ml | 7.81(7.81) µg/ml | 7.81(7.81) µg/ml | 7.81(7.81) µg/ml | 7.81(7.81) µg/ml | 7.81(7.81) µg/ml | 7.81(7.81) µg/ml | 15.63(15.63) µg/ml | 15.63(15.63) µg/ml | MBC in the presence of NH4Cl (A. baumannii ATCC 19,606 [10]): 7.81(7.81) µg/ml; MIC in the presence of NH4Cl (A. baumannii ATCC 19,606 [10]): 7.81(7.81) µg/ml; MBC in the presence of ZnCl2 (A. baumannii ATCC 19,606 [10]): 15.63(15.63) µg/ml; MIC in the presence of ZnCl2 (A. baumannii ATCC 19,606 [10]): 15.63(15.63) µg/ml; MBC in the presence of MgCl2 (A. baumannii ATCC 19,606 [10]): 7.81(7.81) µg/ml; MIC in the presence of MgCl2 (A. baumannii ATCC 19,606 [10]): 7.81(7.81) µg/ml; MBC in the presence of KCl (A. baumannii ATCC 19,606 [10]): 15.63(15.63) µg/ml; MIC in the presence of KCl (A. baumannii ATCC 19,606 [10]): 15.63(15.63) µg/ml; MBC in the presence of NaCl (A. baumannii ATCC 19,606 [10]): 62.5(62.5) µg/ml; MIC in the presence of NaCl (A. baumannii ATCC 19,606 [10]): 62.5(62.5) µg/ml; MBC in the presence of CaCl2 (A. baumannii ATCC 19,606 [10]): 15.63(15.63) µg/ml; MIC in the presence of CaCl2 (A. baumannii ATCC 19,606 [10]): 15.63(15.63) µg/ml; MBC, control (A. baumannii ATCC 19,606 [10]): 7.81(7.81) µg/ml; MIC, control (A. baumannii ATCC 19,606 [10]): 7.81(7.81) µg/ml; cell viability ([11]; 1 × and 2 × MIC): 100%; cell viability ([11]; peptide 62.5 µg/mL): more than 70%
RLFRRVKKVAGKIAKRIWK-NH2 [AP19] | 3.91(3.91) µg/ml | 3.91(3.91) µg/ml | 7.81 µg/mL | 7.81 (7.81) µg/ml | 7.81(7.81) µg/ml | 7.81(7.81) µg/ml | 7.81(7.81) µg/ml | 7.81(7.81) µg/ml | 7.81(7.81) µg/ml | 7.81(7.81) µg/ml | 3.91(3.91) µg/ml | 3.91(3.91) µg/ml | 7.81(7.81) µg/ml | 7.81(7.81) µg/ml | 7.81(7.81) µg/ml | 7.81(7.81) µg/ml | 3.91(3.91) µg/ml | 3.91(3.91) µg/ml | 7.81(7.81) µg/ml | 7.81(7.81) µg/ml | MBC in the presence of NH4Cl (A. baumannii ATCC 19,606 [10]): 7.81(7.81) µg/ml; MIC in the presence of NH4Cl (A. baumannii ATCC 19,606 [10]): 7.81(7.81) µg/ml; MBC in the presence of ZnCl2 (A. baumannii ATCC 19,606 [10]): 7.81(7.81) µg/ml; MIC in the presence of ZnCl2 (A. baumannii ATCC 19,606 [10]): 7.81(7.81) µg/ml; MBC in the presence of MgCl2 (A. baumannii ATCC 19,606 [10]): 7.81(7.81) µg/ml; MIC in the presence of MgCl2 (A. baumannii ATCC 19,606 [10]): 7.81(7.81) µg/ml; MBC in the presence of KCl (A. baumannii ATCC 19,606 [10]): 7.81(7.81) µg/ml; MIC in the presence of KCl (A. baumannii ATCC 19,606 [10]): 7.81(7.81) µg/ml; MBC in the presence of NaCl (A. baumannii ATCC 19,606 [10]): 31.25(31.25) µg/ml; MIC in the presence of NaCl (A. baumannii ATCC 19,606 [10]): 31.25(31.25) µg/ml; MBC in the presence of CaCl2 (A. baumannii ATCC 19,606 [10]): 7.81(7.81) µg/ml; MIC in the presence of CaCl2 (A. baumannii ATCC 19,606 [10]): 7.81(7.81) µg/ml; MBC, control (A. baumannii ATCC 19,606 [10]): 7.81(7.81) µg/ml; MIC, control (A. baumannii ATCC 19,606 [10]): 7.81(7.81) µg/ml; cell viability ([11]; all tested peptide concentrations (0.98 to 250 μg/ml)): 100%
